Values after ≈ are worked out from the molar mass of the structure shown. Where a name gives a salt, the structure may show the parent alone. Read-outs that look alike come from different tables or passages of the source.
Key:
[1] = tested on: L1210 mouse leukemia cells; experiment: formation of colonies of L1210 leukemia cells in soft agar; format: cell-based; settings: for IC50: Mus musculus
Experimental: The cytostatic activity of the compounds according to the invention was tested using L1210 mouse leukemia cells. This made use of the formation of colonies of L1210 leukemia cells in agar plates. This method is used to detect the effect of the test substances on the growth behavior of the cells over 1 hour or over several generations. With a cell cycle lasting 10-12 hours, this means that about 14 consecutive generations are observed in a test lasting 7 days. In this test, the substances having cytostatic activity according to the invention bring about a reduction in the number of colonies to be observed by comparison with an untreated control sample.
500 leukemia cells per plate were incubated with various concentrations of the test substance at 37° C. for 1 hour. These cells were then washed twice with McCoy5A medium and finally, after addition of 0.3% agar, poured into Petri dishes. Controls were incubated only with fresh medium. In some cases, in place of the incubation for one hour, various concentrations of test substances were mixed with the upper agar layer in order in this way to achieve continuous exposure of the cells throughout the incubation time. After the agar had solidified, the plates were incubated at 37° C. in an incubator for 7 days (5% by vol. CO2, 95% relative humidity). The number of colonies with a diameter of more than 60 μm which had formed was then counted. The results have been given as the number of colonies in treated agar plates as a percentage of the untreated control. The IC50 was determined, as a measure of the activity of the substance, from the dose-effect plot obtained in this way.

[2] = approximative toxicity, intraperitoneal (LD50); settings: in vivo, ip
Description: *3xip,q3d: three intraperitoneal administrations with an interval of thre
1xip: one intraperitoneal administration

[3] = tested on: L1210 leukemia cells; experiment: cross-resistance in vitro, MTT assay on sensitive and adriamycin (doxorubicin)-resistant L1210 leukemia cells; format: cell-based, mouse; settings: for Degree of cross-resistance to adriamycin / Degree of resistance of the cell: 3d incubation; for Degree of resistance of the cell: IC50 resistant subline relative to IC50 sensitive line
Experimental: L1210, A 549 or HT 29 in the exponential phase of growth are incubated in a cell density of 5×10^3 cells/ml in RPMI 1640 in a 96-well microtiter plate for 72 hours with various concentrations of the test substance at 37° C., 5% CO2 and 95% relative humidity. Control experiments contain merely growth medium in place of the test substance. Each test substance and the control are determined in quadruplicate. After incubation for 65 hours, 50 μl of MTT solution (2.5 mg/ml in phosphate-buffered saline) are added. In the presence of live cells, MTT is reduced to a dark-red insoluble formazan dyestuff. This reaction is complete after 7 hours (L1210 cells) or after 24 hours (A 549, HT 29 cells), and the supernatant medium is carefully removed by aspiration. The insoluble dyestuff is dissolved by addition of 100 μl of DMSO, and the extinction of the resulting solution at a wavelength of 492 nm is then measured for each well in a Flow 340 CC multiscan photometer.
The ratio of the extinctions of treated and untreated cells yields a dose-effect plot from which the concentration which just kills 50% of the cells (IC50) can be read off. The coefficient of variation for repeat tests is less than 15%.
The cross-resistance between the particular test compound and doxorubicin is determined using the MTT assay (for method, see above) on sensitive and resistant L1210 leukemia cells.
The resistant cell line was established by incubation of a sensitive subline with stepwise increasing concentrations of the reference compound.
The IC50 of the test compound on the resistant subline relative to the IC50 of the sensitive subline yields the degree of resistance both for the test compound (DR(T)) and for the reference compound (DR(R)) in accordance with the formula [formula]
In addition, the degree of cross-resistance (DCR) for the test compound is calculated in accordance with the formula [formula]
In the case where the loss of activity of the test compound on the resistant line related to the sensitive line is greater than that of the reference compound, a degree of cross-resistance of more than 100% is possible.

[4] = 168 h, continuous exposure, 7 days, L1210 colony formation, read-out: Long-term incubation IC50
[5] = 1 h incubation, then 7 days colony formation, L1210, read-out: 1 h Incubation IC50
[6] = one intraperitoneal administration, read-out: Approximative toxicity LD50, 1xip
[7] = 1 h incubation, then 7 days colony formation, L1210
[8] = continuous exposure, 7 days, L1210 colony formation
[9] = L1210, 168 h, read-out: Long-term incubation IC50, continuous exposure, 7 days, L1210 colony formation
[10] = L1210, read-out: 1 h Incubation IC50, 1 h incubation, then 7 days colony formation, L1210
[11] = three intraperitoneal administrations with an interval of three days between each, read-out: Approximative toxicity LD50, 3xip, q3d

Row | Compound | IC50 [1, 4] | IC50 [1, 5] | LD50 [2, 6] | IC50 [1, 9] | IC50 [1, 10] | other results
1 | CC[C@@]1(O)C[C@H](O[C@H]2C[C@H](N(C)C)[C@H](OC(=O)c3ccccc3)[C@H](C)O2)c2c(O)c3c(c(O)c2[C@H]1O)C(=O)c1cccc(O)c1C3=O [Compound 17, 7-O-(4'-O-benzoyl-α-L-rhodosaminyl)-β-rhodomycinone] | 0.12 µg/mL (≈ 0.185 µM) | 0.9 µg/mL (≈ 1.39 µM) | 1 to 10 mg/kg | – | – | –
2 | CC[C@@]1(O)C[C@H](O[C@H]2C[C@H](N(C)C)[C@H](OC(=O)c3ccc(OC)cc3)[C@H](C)O2)c2c(O)c3c(c(O)c2[C@H]1O[C@H]1C[C@H](N(C)C)[C@H](OC(=O)c2ccc(OC)cc2)[C@H](C)O1)C(=O)c1cccc(O)c1C3=O [Compound 4, HCl adduct of compound 3] | – | – | – | – | – | 1 h Incubation IC50 [1, 7]: > 1 µg/mL; Long-term incubation IC50 [1, 8]: 0.09 µg/mL
3 | CC[C@@]1(O)C[C@H](O[C@H]2C[C@H](N(C)C)[C@H](OC(=O)c3ccccc3)[C@H](C)O2)c2c(O)c3c(c(O)c2[C@H]1O[C@H]1C[C@H](N(C)C)[C@H](OC(=O)c2ccccc2)[C@H](C)O1)C(=O)c1cccc(O)c1C3=O [Compound 1, 7,10-O-Bis-(4'-O-benzoyl-α-L-rhodosaminyl)-β-rhodomycinone] | – | – | > 100 mg/kg | – | – | Degree of cross-resistance to adriamycin [3]: 0%; Degree of resistance of the cell [3]: 1.0
4 | CC[C@@]1(O)C[C@H](O[C@H]2C[C@H](N(C)C)[C@H](OC(=O)c3ccc([N+](=O)[O-])cc3)[C@H](C)O2)c2c(O)c3c(c(O)c2[C@H]1O[C@H]1C[C@H](N(C)C)[C@H](OC(=O)c2ccc([N+](=O)[O-])cc2)[C@H](C)O1)C(=O)c1cccc(O)c1C3=O [Compound 7, 7,10-O-Bis-(4'-O-p-nitrobenzoyl-α-L-rhodosaminyl)-β-rhodomycinone] | – | – | – | 2.1 µg/mL (≈ 2.1 µM) | > 10 µg/mL | –
5 | COc1cccc2c1C(=O)c1c(O)c3c(c(O)c1C2=O)C[C@@](O)(C(=O)CO)C[C@@H]3O[C@H]1C[C@H](N)[C@H](O)[C@H](C)O1 [Adriamycin, reference compound] | – | – | – | 0.02 µg/mL (≈ 0.0368 µM) | 0.04 µg/mL (≈ 0.0736 µM) | Degree of cross-resistance to adriamycin [3]: 100.0%; Degree of resistance of the cell [3]: 60-80; resistance of the resistant cell line for doxorubicin ([3]; resistant L1210 line, 4320 min): 60-80 fold
6 | CC[C@@]1(O)C[C@H](O[C@H]2C[C@H](N(C)C)[C@H](OC(C)=O)[C@H](C)O2)c2c(O)c3c(c(O)c2[C@H]1O)C(=O)c1cccc(O)c1C3=O [Compound 21, 7-O-(4'-O-Acetyl-α-L-rhodosaminyl)-β-rhodomycinone] | 0.08 µg/mL (≈ 0.137 µM) | 0.7 µg/mL (≈ 1.2 µM) | 1 to 10 mg/kg | – | – | Degree of cross-resistance to adriamycin [3]: 2.4%; Degree of resistance of the cell [3]: 2.2
7 | CC[C@@]1(O)C[C@H](O[C@H]2C[C@H](N(C)C)[C@H](OC(=O)c3ccc([N+](=O)[O-])cc3)[C@H](C)O2)c2c(O)c3c(c(O)c2[C@H]1O)C(=O)c1cccc(O)c1C3=O [Compound 19, 7-O-(4'-O-p-Nitrobenzoyl-α-L-rhodosaminyl)-β-rhodomycinone] | – | – | > 50 mg/kg | 0.03 µg/mL (≈ 0.0433 µM) | 0.55 µg/mL (≈ 0.794 µM) | –
8 | CC[C@@]1(O)C[C@H](O[C@H]2C[C@H](N(C)C)[C@H](O)[C@H](C)O2)c2c(O)c3c(c(O)c2[C@H]1O[C@H]1C[C@H](N(C)C)[C@H](OC(=O)c2ccc(OC)cc2)[C@H](C)O1)C(=O)c1cccc(O)c1C3=O [Compound 12b, 7-O-α-L-rhodosaminyl-10-O-[4"-O-(p-methoxybenzoyl)-α-L-rhodosaminyl]-β-rhodomycinone] | 0.011 µg/mL (≈ 0.0132 µM) | 0.1 µg/mL (≈ 0.12 µM) | – | – | – | LD50 [2, 11]: 5.33 to 10.7 mg/kg; Degree of cross-resistance to adriamycin [3]: 5.0%; Degree of resistance of the cell [3]: 5.0
9 | CCC(=O)O[C@@H]1[C@H](C)O[C@@H](O[C@H]2C[C@](O)(CC)[C@H](O[C@H]3C[C@H](N(C)C)[C@H](OC(=O)CC)[C@H](C)O3)c3c(O)c4c(c(O)c32)C(=O)c2c(O)cccc2C4=O)C[C@@H]1N(C)C [Compound 10, 7,10-O-Bis-(4'-O-propionyl-α-L-rhodosaminyl)-β-rhodomycinone] | 0.12 µg/mL (≈ 0.148 µM) | 0.25 µg/mL (≈ 0.308 µM) | – | – | – | –
10 | CC[C@@]1(O)C[C@H](O[C@H]2C[C@H](N(C)C)[C@H](OC(=O)c3ccc(C#N)cc3)[C@H](C)O2)c2c(O)c3c(c(O)c2[C@H]1O[C@H]1C[C@H](N(C)C)[C@H](OC(=O)c2ccc(C#N)cc2)[C@H](C)O1)C(=O)c1cccc(O)c1C3=O [Compound 5, 7,10-O-Bis-(4'-O-p-cyanobenzoyl-α-L-rhodosaminyl)-β-rhodomycinon] | – | – | – | 0.105 µg/mL (≈ 0.109 µM) | > 1 µg/mL | –
11 | CC[C@@]1(O)C[C@H](O[C@H]2C[C@H](N(C)C)[C@H](OC(=O)c3ccc(Br)cc3)[C@H](C)O2)c2c(O)c3c(c(O)c2[C@H]1O[C@H]1C[C@H](N(C)C)[C@H](OC(=O)c2ccc(Br)cc2)[C@H](C)O1)C(=O)c1cccc(O)c1C3=O [Compound 8, 7,10-O-Bis-(4'-O-p-bromobenzoyl-α-L-rhodosaminyl)-β-rhodomycinone] | – | – | – | 0.3 µg/mL (≈ 0.281 µM) | > 10 µg/mL | –
12 | CC[C@@]1(O)C[C@H](O[C@H]2C[C@H](N(C)C)[C@H](OC(=O)c3ccc(OC)cc3)[C@H](C)O2)c2c(O)c3c(c(O)c2[C@H]1O)C(=O)c1cccc(O)c1C3=O [Compound 18, 7-O-(4'-O-p-Methoxybenzoyl-α-L-rhodosaminyl)-β-rhodomycinone] | 0.075 µg/mL (≈ 0.111 µM) | 0.66 µg/mL (≈ 0.974 µM) | 10 to 50 mg/kg | – | – | –
13 | CC[C@@]1(O)C[C@H](O[C@H]2C[C@H](N(C)C)[C@H](OC(=O)c3ccc(OC)cc3)[C@H](C)O2)c2c(O)c3c(c(O)c2[C@H]1O[C@H]1C[C@H](N(C)C)[C@H](OC(=O)c2ccc(OC)cc2)[C@H](C)O1)C(=O)c1cccc(O)c1C3=O [Compound 3, 7,10-O-Bis-(4'-O-p-methoxybenzoyl-α-L-rhodosaminyl)-β-rhodomycinone] | – | – | > 100 mg/kg | 0.115 µg/mL (≈ 0.119 µM) | > 1 µg/mL | –
14 | CC[C@@]1(O)C[C@H](O[C@H]2C[C@H](N(C)C)[C@H](OC(=O)c3ccc(OC)cc3)[C@H](C)O2)c2c(O)c3c(c(O)c2[C@H]1O[C@H]1C[C@H](N(C)C)[C@H](O)[C@H](C)O1)C(=O)c1cccc(O)c1C3=O [Compound 12a, 7-O-[(4'-O-p-methoxybenzoyl)-α-L-rhodosaminyl]-10-O-α-L-rhodosaminyl-β-rhodomycinone] | 0.0085 µg/mL (≈ 0.0102 µM) | 0.13 µg/mL (≈ 0.156 µM) | – | – | – | LD50 [2, 11]: 10 to 15 mg/kg; Degree of cross-resistance to adriamycin [3]: 1.3%; Degree of resistance of the cell [3]: 0.75
15 | CC[C@@]1(O)C[C@H](O[C@H]2C[C@H](N(C)C)[C@H](OC(=O)c3ccc(C#N)cc3)[C@H](C)O2)c2c(O)c3c(c(O)c2[C@H]1O[C@H]1C[C@H](N(C)C)[C@H](OC(=O)c2ccc(C#N)cc2)[C@H](C)O1)C(=O)c1cccc(O)c1C3=O [Compound 6, HCl adduct of compound 5] | – | – | – | – | – | 1 h Incubation IC50 [1, 7]: > 1 µg/mL; Long-term incubation IC50 [1, 8]: 0.14 µg/mL
16 | CC[C@@]1(O)C[C@H](O[C@H]2C[C@H](N(C)C)[C@H](OC(=O)c3ccccc3)[C@H](C)O2)c2c(O)c3c(c(O)c2[C@H]1O[C@H]1C[C@H](N(C)C)[C@H](OC(=O)c2ccccc2)[C@H](C)O1)C(=O)c1cccc(O)c1C3=O [Compound 2, HCl adduct of compound 1] | 0.095 µg/mL | > 1 µg/mL | – | – | – | LD50 [2, 11]: > 85 mg/kg
17 | CC[C@@]1(O)CCc2c(O)c3c(c(O)c2[C@H]1O[C@H]1C[C@H](N(C)C)[C@H](OC(=O)c2ccccc2)[C@H](C)O1)C(=O)c1cccc(O)c1C3=O [Compound 22, 10-O-(4'-O-Benzoyl-α-L-rhodosaminyl)-γ-rhodomycinone] | 0.48 µg/mL (≈ 0.76 µM) | > 1 µg/mL | 1 to 10 mg/kg | – | – | –
